Results: patent publication US9034863B2, “Compositions and methods for inhibiting entry of a hepatic virus” (The Board of Trustees of the University of Illinois, priority 2008, dated 2015)
“Also recorded” adds a separate entry of the source. Where two headings read alike, the source gives them in different places.

Experiments:
HCV [1] = assay: Prevention of HCV infection in mice with chimeric human livers; type: in vivo; details: 10 mg/kg/day oral gavage from ~7 days prior to infection
From the text: Alternatively, severe combined immunodeficient (SCID)/urokinase plasminogen activator (uPA) mice can be used. Mice are transplanted with primary human hepatocytes according to conventional methods (Azuma, et al. (2007) Nat. Biotechnol. 25:903-910; Bissig, et al. (2007) Proc. Natl. Acad. Sci. USA 104:20507-20511) and monitored for two months post-transplantation to assess repopulation efficiency by measuring human albumin serum levels. Using these models, mice can be assessed for the prevention of HCV infection or the inhibition of an already established infection.
Mice are injected with HCV positive human serum (of any HCV genotype) and HCV RNA serum levels are quantified daily and/or weekly to assess the efficacy with which the treatments reduces the amplification of HCV RNA levels. Evidence that ezetimibe reduces the amplification HCV levels in vivo, as compared to untreated animals, provides in vivo evidence that ezetimibe is an effective treatment for HCV in patients.

HCVcc^G451R = assay: Infection of Huh7 cells with SR-B1-independent HCVcc G451R, intracellular HCV RNA; type: cell-based, Hepatitis C virus (HCV)
Protocol: (§1) Studies have shown that a G451R mutation in the viral envelope glycoprotein (E2) results in HCV virions of […] density and faster infection kinetics (thong, et al. (2006) J. Virol. 80:11082-11093). […] Thus, if ezetimibe was blocking HCV entry via an SR-B1 mediated mechanism, it would be expected that the mutant G451R virus would be less susceptible to the effects of ezetimibe. As a result, experiments were performed to assess the antiviral efficacy of ezetimibe against the SR-B1-independent HCVcc^G451R virus. Monolayers of Huh7 cells were inoculated with either wild-type HCVcc^JFH-1 or HCVcc^G451R at an MOI of 0.01 FFU/cell for 12 hours. Ezetimibe treatment at concentrations of 15 or 30 μM was initiated (and then continued) either 6 hours prior to infection, during the 12 hour incubation of the virus on the cells, or immediately following the 12 hour viral inoculation period. Ezetimibe at a concentration of 30 μM inhibited HCVcc^JFH-1 infection approximately 10-fold at 48 hours post-infection.

HCVcc = assay: HCV foci reduction assay, acute HCVcc infection of Huh7 cells; type: cell-based, Hepatitis C virus (HCV); details: for inhibition at 12.5 µM / inhibition at 25 µM: Hepatitis C virus, Huh-7, read-out: inhibition of HCV foci formation
wild-type HCVcc^JFH-1 = assay: Infection of Huh7 cells with wild-type HCVcc JFH-1, intracellular HCV RNA; type: cell-based, Hepatitis C virus (HCV); details: 30 μM, 48 hours post-infection
Protocol: as §1

Dengue virus (DNV) = assay: Dengue virus plaque formation; type: cell-based; details: 12.5 or 25 μM
Protocol: To ensure that the inhibition observed was not due to ezetimibe-induced changes in cell proliferation or cytotoxicity, cellular ATP was measured as a read-out of Huh7 cell viability and proliferation and cellular toxicity by adenylate kinase release following treatment with increasing doses of ezetimibe. […] Furthermore, to test the specificity of the observed HCV inhibition, the effect of ezetimibe on entry of another flavivirus, Dengue virus (DNV), was assessed.

HCV [2] = assay: HCV infection initiation in chimeric mice transplanted with human hepatocytes; type: in vivo
[3] = test system: HCV genotype 2a subgenomic replicon; assay: HCV sg2a replicon RNA replication in Huh7 cells, RT-qPCR; type: cell-based, Hepatitis C virus (HCV); details: 72 hours post-treatment
From the text: Huh7 cells, also known as Huh7/scr cells, are well-known in the art (Zhong, et al. (2005) Proc. Natl. Acad. Sci. USA 102, 9294-99; Gastaminza, et al. (2006) J. Virol. 80:11074-81; Zhong, et al. (2006) J. Virol. 80:11082-93; Sainz et al. (2009) PLoS ONE 4:e6561). […] The HCV sg2a replicon was established as previously described (Uprichard, et al. (2006) Virol. J. 3:89). Briefly the HCV genotype 2a subgenomic replicon RNA (psgJFH1; Kato, et al. (2003) Gastroenterology 125:1808-17) was XbaI linearized, in vitro transcribed using […] T7 (Ambion, Austin, Tex.) and transfected into cells using a modified electroporation protocol (Krieger, et al. (2001) J. Virol. 75(10):4614-24). All cells were cultured in complete Dulbecco's modified Eagle's medium (cDMEM) (Hyclone, Logan, Utah) supplemented with 10% fetal bovine serum (FBS) (Hyclone), 100 units/ml penicillin, […] streptomycin, and 2 mM L-glutamine (Gibco Invitrogen, Carlsbad, Calif.) and 500 μg/ml geneticin ((Invitrogen) for HCV replicon cells only).
Total cellular RNA was purified using an ABI PRISM™ 6100 Nucleic Acid PrepStation (Applied Biosystems), as per the manufacturer's instructions. […] HCV JFH-1 and human GAPDH RNA transcript levels were determined relative to a standard curve derived from serial dilutions of plasmid containing the JFH-1 HCV cDNA or the human GAPDH coding sequence, respectively. […]

HCV [4] = assay: Chronic HCV infection treated with IFN-β and ezetimibe, weekly RT-qPCR for 8 weeks; type: cell-based, Hepatitis C virus (HCV); details: alone, during 8 weeks
From the text: Intracellular RNA was collected from triplicate wells weekly for 8 weeks post-treatment and HCV RNA was quantified by RT-qPCR.

JFH-1 = assay: Infectivity of intracellular virus from naringenin-treated cells; type: cell-based, Hepatitis C virus (HCV); details: standard cell-free infection of naïve Huh7-1 cells
Protocol: To determine the nature of the intracellular JFH-1 virion particles which are able to spread from cell-to-cell, even in the absence of secretion, the buoyant density of the accumulated, intracellular particles from naringenin-treated cells were analyzed on iodixanol gradients. It was observed that the peak of RNA from these cells was shifted towards the heavier fractions consistent with the intracellular particles in naringenin-treated cells being less lipidated. Infectivity of the intracellular virus from naringenin-treated cells was reduced by more than 95% in a standard cell-free virus infection of naïve Huh7-1 cells.

[5] = co-incubated with HCVcc for 12 h
[6] = pre-treatment 6 h prior to infection, compared to untreated cultures

Structure (SMILES) | establishment of HCV infection (serum HCV RNA) (HCV [1]) | infection blocked (HCVcc^G451R) [%] | inhibition at 12.5 µM (HCVcc; [5]) [%] | inhibition at 25 µM (HCVcc; [5]) [%] | inhibition at 12.5 µM (HCVcc; [6]) [%] | inhibition at 25 µM (HCVcc; [6]) [%] | degree of inhibition of HCV foci formation (HCVcc; added to cells post-infection) | inhibition of HCVcc JFH-1 infection (wild-type HCVcc^JFH-1) | reduction in DNV plaque formation (Dengue virus (DNV)) | HCV infection initiation (HCV [2]) | sg2a HCV RNA levels [3] | steady-state intracellular HCV RNA levels (HCV [4]) | reduction of infectivity of intracellular virus (JFH-1)
O=C1[C@H](CC[C@H](O)c2ccc(F)cc2)[C@@H](c2ccc(O)cc2)N1c1ccc(F)cc1 [ezetimibe, 1-(4-fluorophenyl)-(3R)-[3-(4-fluorophenyl)-(3S)-hydroxypropyl]-(45)-(4-hydroxyphenyl)-2-azetidinone] | prevents the establishment of HCV infection | ~100 | 90 | 99 | 85 | 95 | greatly reduced | approximately 10 fold | no significant reduction | inhibits HCV infection initiation | did not inhibit HCV subgenomic RNA replication; also recorded: no significant reduction | did not reduce HCV infection | 
O=C1C[C@@H](c2ccc(O)cc2)Oc2cc(O)cc(O)c21 [naringenin] |  |  |  |  |  |  |  |  |  |  |  |  | more than 95%
